The record followed here is PubChem BioAssay (NCI).

Test systems include BT-549 breast; HOP-62 NSCLC; IGROV1 ovarian; KM12 colon; MOLT-4 leukemia; NCI-H226 lung; NCI/ADR-RES ovarian; PC-3 prostate; SK-MEL-2 melanoma; SK-OV-3 ovarian.
What all share (experiment): growth of human tumour cells (NCI), 48 h

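A five-concentration, 48-hour dose response in 96-well plates underlies each endpoint, interpolated linearly between surrounding concentrations. GI50 marks 50% less growth. TGI denotes the concentration required for complete inhibition of growth.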

Consider `O=c1c(-c2ccc3c(c2)OCO3)coc2c(CO)c(O)ccc12`, for which the GI50 was 1.47 µM in the experiment with BT-549 breast; 2.07 µM in the experiment on HOP-62 NSCLC; 2.01 µM in the experiment on IGROV1 ovarian; 3.24 µM in the experiment with KM12 colon; 30.2 µM in the experiment on MOLT-4 leukemia; 1.81 µM in the experiment on NCI-H226 lung. For the same molecule, the GI50 is 3.72 µM in the experiment with NCI/ADR-RES ovarian, 1.54 µM in the experiment on PC-3 prostate, 2.25 µM with SK-MEL-2 melanoma and 2.41 µM with SK-OV-3 ovarian. For the same molecule, the TGI was 3.41 µM in the experiment on BT-549 breast; 5.01 µM with HOP-62 NSCLC; 4.93 µM in the experiment with IGROV1 ovarian; 13.3 µM with KM12 colon; greater than 100 µM in the experiment on MOLT-4 leukemia; 4.46 µM with NCI-H226 lung. For the same molecule, the TGI with NCI/ADR-RES ovarian was determined as 21.4 µM; with PC-3 prostate, 4.03 µM; in the experiment with SK-MEL-2 melanoma, 5.87 µM; in the experiment on SK-OV-3 ovarian, 6.39 µM.

Turning to `COc1ccc(Oc2nc(Nc3ccc(N4CCOCC4)cc3)ncc2NC(=O)Nc2cc(OC)cc(OC)c2)cc1`, the GI50 was 1.59 µM in the experiment with BT-549 breast; 5.48 µM with HOP-62 NSCLC; 4.45 µM in the experiment on IGROV1 ovarian; 1.82 µM in the experiment on KM12 colon; 10.6 µM in the experiment on MOLT-4 leukemia; 3.84 µM in the experiment on NCI-H226 lung. The GI50 was greater than 33.3 µM with NCI/ADR-RES ovarian, 2.39 µM in the experiment with PC-3 prostate, 4.11 µM in the experiment with SK-MEL-2 melanoma and 7.86 µM in the experiment on SK-OV-3 ovarian. In addition, the TGI in the experiment with BT-549 breast was 7.98 µM; with HOP-62 NSCLC it was 22.2 µM; in the experiment with IGROV1 ovarian it was 13.9 µM; in the experiment on KM12 colon, 15.3 µM; in the experiment with MOLT-4 leukemia it was greater than 33.3 µM; in the experiment with NCI-H226 lung, 11.8 µM. Moreover, the TGI is greater than 33.3 µM in the experiment on NCI/ADR-RES ovarian, 14.2 µM with PC-3 prostate, 15.9 µM with SK-MEL-2 melanoma and 25.6 µM in the experiment on SK-OV-3 ovarian.

On to `NS(=O)(=O)c1cccc(-c2cc3ccncc3cc2OCc2ccccc2)c1`, for which the GI50 with BT-549 breast was 7.65 µM; in the experiment on HOP-62 NSCLC, 11.6 µM; in the experiment on IGROV1 ovarian, greater than 20.7 µM; in the experiment with KM12 colon it was 10.7 µM; with MOLT-4 leukemia, 8.44 µM; in the experiment with NCI-H226 lung, 9.03 µM. Also, the GI50 is 11.2 µM with NCI/ADR-RES ovarian, 10.8 µM in the experiment with PC-3 prostate, 7.43 µM in the experiment on SK-MEL-2 melanoma and greater than 18.5 µM in the experiment with SK-OV-3 ovarian. Moreover, the TGI with BT-549 breast, in the experiment on HOP-62 NSCLC, in the experiment on IGROV1 ovarian, with KM12 colon, with MOLT-4 leukemia and in the experiment with NCI-H226 lung was greater than 25 µM each time. Moreover, the TGI in the experiment with NCI/ADR-RES ovarian is greater than 25 µM; in the experiment with PC-3 prostate it was greater than 25 µM; with SK-MEL-2 melanoma it was greater than 19.6 µM; with SK-OV-3 ovarian, greater than 25 µM.

As for `Nc1ncnc2c1nc(N)n2C1OC(CO)C(O)C1O` (stereo not given), the GI50 is 1.65 µM in the experiment on BT-549 breast; 0.311 µM in the experiment with HOP-62 NSCLC; 0.238 µM in the experiment on IGROV1 ovarian; 0.266 µM in the experiment on KM12 colon; 1.76 µM with MOLT-4 leukemia; 1.03 µM with NCI-H226 lung. Besides, the GI50 in the experiment with NCI/ADR-RES ovarian was 0.697 µM; in the experiment on PC-3 prostate it was 1.07 µM; in the experiment with SK-MEL-2 melanoma, 0.72 µM; in the experiment with SK-OV-3 ovarian, 0.52 µM. Moreover, the TGI is 3.36 µM in the experiment with BT-549 breast; 2.71 µM in the experiment with HOP-62 NSCLC; 0.863 µM with IGROV1 ovarian; 0.867 µM with KM12 colon; greater than 24.4 µM in the experiment on MOLT-4 leukemia; 3.38 µM with NCI-H226 lung. For the same molecule, the TGI in the experiment with NCI/ADR-RES ovarian was 3.29 µM; with PC-3 prostate, 8.21 µM; in the experiment on SK-MEL-2 melanoma it was 2.92 µM; in the experiment with SK-OV-3 ovarian, 3.45 µM.

In the case of `Oc1[nH]c2ccc(Cl)cc2c1/C=c1/ccc2c(c1)N=C(c1ccc(C(F)(F)F)cc1)N=2`, the GI50 in the experiment on BT-549 breast was 1.87 µM; in the experiment on HOP-62 NSCLC, 2.28 µM; with IGROV1 ovarian it was 3.35 µM; in the experiment on KM12 colon, 2.08 µM; in the experiment with MOLT-4 leukemia, 2.41 µM; in the experiment on NCI-H226 lung, 3.13 µM. The GI50 with NCI/ADR-RES ovarian is 2.6 µM; with PC-3 prostate, 2.29 µM; in the experiment on SK-MEL-2 melanoma, 1.97 µM; with SK-OV-3 ovarian it was 4.19 µM. Moreover, the TGI in the experiment with BT-549 breast came to 4.75 µM; in the experiment with HOP-62 NSCLC, 4.78 µM; in the experiment with IGROV1 ovarian, 14.2 µM; with KM12 colon, 7.63 µM; with MOLT-4 leukemia, 6.19 µM; in the experiment on NCI-H226 lung it was 11.6 µM. For the same molecule, the TGI with NCI/ADR-RES ovarian was determined as 7.77 µM; in the experiment on PC-3 prostate it was 7.58 µM; in the experiment with SK-MEL-2 melanoma it was 3.79 µM; in the experiment on SK-OV-3 ovarian it was 13.9 µM.

Regarding `O=C1c2ccccc2-c2c1c1c(O)cccc1n2CCCc1ccccc1`, the GI50 with BT-549 breast is 16 µM; with HOP-62 NSCLC it was 43 µM; in the experiment with IGROV1 ovarian, 17.1 µM; with KM12 colon, 4.54 µM; with MOLT-4 leukemia it was 30.4 µM; with NCI-H226 lung, 11.2 µM. Moreover, the GI50 in the experiment with NCI/ADR-RES ovarian was 4.47 µM; in the experiment on PC-3 prostate, 16.2 µM; with SK-MEL-2 melanoma, 18.5 µM; in the experiment with SK-OV-3 ovarian it was 84.3 µM. Also, the TGI with BT-549 breast was 63.6 µM; in the experiment on HOP-62 NSCLC, greater than 100 µM; with IGROV1 ovarian, greater than 100 µM; in the experiment on KM12 colon, greater than 100 µM; in the experiment with MOLT-4 leukemia, greater than 100 µM; in the experiment with NCI-H226 lung, 50.9 µM. Also, the TGI is 51.1 µM with NCI/ADR-RES ovarian, greater than 100 µM with PC-3 prostate, 87.3 µM with SK-MEL-2 melanoma and greater than 100 µM with SK-OV-3 ovarian.

`Cc1ccc2c(n1)C(=O)C(Cl)=C(Nc1ccc(N3CCN(C)CC3)cc1)C2=O`: the GI50 is 1.61 µM in the experiment on BT-549 breast; 3.63 µM in the experiment on HOP-62 NSCLC; 1.87 µM with IGROV1 ovarian; 10.2 µM with KM12 colon; 2.37 µM in the experiment with MOLT-4 leukemia; 1.77 µM with NCI-H226 lung. For the same molecule, the GI50 is 3.09 µM in the experiment with NCI/ADR-RES ovarian, 1.57 µM with PC-3 prostate, 1.87 µM with SK-MEL-2 melanoma and 13 µM in the experiment on SK-OV-3 ovarian. Also, the TGI with BT-549 breast was found to be 2.97 µM; with HOP-62 NSCLC, 14.7 µM; in the experiment on IGROV1 ovarian it was 3.6 µM; with KM12 colon it was 23.5 µM; in the experiment on MOLT-4 leukemia it was 5.78 µM; in the experiment with NCI-H226 lung it was 3.38 µM. Besides, the TGI in the experiment on NCI/ADR-RES ovarian is 9.45 µM; in the experiment on PC-3 prostate, 3.16 µM; with SK-MEL-2 melanoma, 3.56 µM; in the experiment on SK-OV-3 ovarian, 25.8 µM.
